In data set [1] the test system is Mycosphaerella graminicola; Anamorph: Septoria tritici. In words: Fungicidal activity: Leaf Blotch of Wheat (SEPTTR). The note with it: Zymoseptoria tritici, High Volume (100 ppm), wheat leaf blotch. The data set is classed as in vivo. In outline:
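Compounds were dissolved in acetone, diluted with nine volumes of water containing 110 ppm Triton X-100, and sprayed to run-off on first-leaf Yuma wheat seedlings inoculated with Septoria tritici spores before or after treatment. Plants were held in a dew chamber, then a 20° C. greenhouse. Percent control was derived from disease severity relative to untreated plants.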

The subject of data set [2] is Puccinia triticina. In words: Fungicidal activity: Wheat Brown Rust (PUCCRT). In kind it is in vivo. As to conditions: High Volume (100 ppm). A digest of the protocol:
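Wheat seedlings (Yuma, first leaf) sprayed to run-off with compound in acetone/water with Triton X-100, inoculated with Puccinia triticina before or after treatment. Held overnight in dark dew at 22° C, then greenhouse at 24° C; percent disease control from severity versus untreated plants.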

The mark [3] stands for this setting: 24 h, 1 Day Protectant, read-out: SEPTTR 1 DP disease control.
The mark [4] stands for this setting: 72 h, 3 Day Curative, read-out: SEPTTR 3 DC disease control.
The mark [5] stands for this setting: 24 h, 1 Day Protectant, read-out: PUCCRT 1 DP disease control.
The mark [6] stands for this setting: 72 h, 3 Day Curative, read-out: PUCCRT 3 DC disease control.

Like-named read-outs stand apart in the source and are kept apart here.

Usually melting point stands for the temperature of the solid-liquid transition.

In the case of `COc1ccnc(C(=O)N[C@H]2COC[C@H](CC3CCCCC3)[C@@H](CC3CCCCC3)[C@H](C)OC2=O)c1O` [compound 119], the melting point is 69 to 75 °C. In data set [1] (setting [3]), the pest or weed control at 100 µg/mL was above 70%. The pest or weed control at 100 µg/mL in data set [1] (setting [4]) is below 70%. Moreover, the pest or weed control at 100 µg/mL in data set [2] (setting [5]) is above 70%. Besides, the pest or weed control at 100 µg/mL in data set [2] (setting [6]) is above 70%.
Consider `COc1cccc(C[C@H]2COC[C@H](NC(=O)c3nccc(OC)c3O)C(=O)O[C@@H](C)[C@@H]2Cc2cccc(OC)c2)c1` [compound 124], for which the melting point lay in the range of 62 to 65 °C. Further, the pest or weed control at 100 µg/mL in data set [1] (setting [3]) was below 70%. The pest or weed control at 100 µg/mL in data set [1] (setting [4]) was below 70%. Besides, the pest or weed control at 100 µg/mL in data set [2] (setting [5]) was above 70%. In addition, the pest or weed control at 100 µg/mL in data set [2] (setting [6]) is below 70%.
In the case of `COc1ccnc(C(=O)N[C@H]2COC[C@H](Cc3ccccc3)[C@@H](Cc3ccc(OC(F)(F)F)cc3)[C@H](C)OC2=O)c1O` [compound 131], the melting point lay within 63 to 69 °C. For the same molecule, the pest or weed control at 100 µg/mL in data set [1] (setting [3]) was above 70%. Also, the pest or weed control at 100 µg/mL in data set [1] (setting [4]) is above 70%. The pest or weed control at 100 µg/mL in data set [2] (setting [5]) is above 70%. Besides, the pest or weed control at 100 µg/mL in data set [2] (setting [6]) is above 70%.
For `COc1ccnc(C(=O)N[C@H]2COC[C@H](Cc3ccccc3)[C@@H](c3ccccc3)[C@H](C)OC2=O)c1O` [compound 132], the melting point fell in the range of 185 to 190 °C. Further, in data set [1] (setting [3]), the pest or weed control at 100 µg/mL was above 70%. The pest or weed control at 100 µg/mL in data set [1] (setting [4]) was above 70%. The pest or weed control at 100 µg/mL in data set [2] (setting [5]) is above 70%. The pest or weed control at 100 µg/mL in data set [2] (setting [6]) is above 70%.
Molecule `COc1ccnc(C(=O)N[C@H]2COC[C@H](Cc3ccc(Cl)cc3)[C@@H](Cc3ccc(OC(F)(F)F)cc3)[C@H](C)OC2=O)c1O` [compound 137] came in with a melting point of 64 to 68 °C. Also, in data set [1] (setting [3]), the pest or weed control at 100 µg/mL was below 70%. Besides, the pest or weed control at 100 µg/mL in data set [1] (setting [4]) was above 70%. For the same molecule, the pest or weed control at 100 µg/mL in data set [2] (setting [5]) was above 70%. For the same molecule, the pest or weed control at 100 µg/mL in data set [2] (setting [6]) is below 70%.
`COc1ccnc(C(=O)N[C@H]2COC[C@H](CCCc3ccccc3)[C@@H](CCc3ccccc3)[C@H](C)OC2=O)c1O` [compound 139] came in with a melting point of 48 to 52 °C. For the same molecule, the pest or weed control at 100 µg/mL in data set [1] (setting [3]) is below 70%. In data set [1] (setting [4]), the pest or weed control at 100 µg/mL is below 70%. Also, in data set [2] (setting [5]), the pest or weed control at 100 µg/mL was above 70%. In addition, the pest or weed control at 100 µg/mL in data set [2] (setting [6]) was below 70%.
Regarding `COc1ccnc(C(=O)N[C@H]2COC[C@H](CC3CC3)[C@@H](Cc3ccccc3)[C@H](C)OC2=O)c1O` [compound 140], the melting point was in the range of 56 to 61 °C. The pest or weed control at 100 µg/mL in data set [1] (setting [3]) is above 70%. For the same molecule, the pest or weed control at 100 µg/mL in data set [1] (setting [4]) was below 70%. The pest or weed control at 100 µg/mL in data set [2] (setting [5]) is above 70%. For the same molecule, the pest or weed control at 100 µg/mL in data set [2] (setting [6]) was below 70%.
In turn, `COc1ccnc(C(=O)N[C@H]2COC[C@H](Cc3ccc(C(F)(F)F)cc3)[C@@H](CC(C)C)[C@H](C)OC2=O)c1O` [compound 141] returned a melting point of 66 to 71 °C. The pest or weed control at 100 µg/mL in data set [1] (setting [3]) was above 70%. Besides, the pest or weed control at 100 µg/mL in data set [1] (setting [4]) is above 70%. In addition, in data set [2] (setting [5]), the pest or weed control at 100 µg/mL was above 70%. The pest or weed control at 100 µg/mL in data set [2] (setting [6]) is above 70%.
In turn, `COc1ccnc(C(=O)N[C@H]2COC[C@H](Cc3ccc(Cl)cc3)[C@@H](C3CCCC3)[C@H](C)OC2=O)c1O` [compound 149] gave a melting point of 80 to 84 °C. In data set [1] (setting [3]), the pest or weed control at 100 µg/mL is above 70%. In data set [1] (setting [4]), the pest or weed control at 100 µg/mL is above 70%. The pest or weed control at 100 µg/mL in data set [2] (setting [5]) is above 70%. In addition, the pest or weed control at 100 µg/mL in data set [2] (setting [6]) was above 70%.
In turn, `COc1ccnc(C(=O)N[C@H]2COC[C@H](CCC(C)C)[C@@H](C3CCCC3)[C@H](C)OC2=O)c1O` [compound 150] showed a melting point of 38 to 43 °C. Also, in data set [1] (setting [3]), the pest or weed control at 100 µg/mL was above 70%. Besides, in data set [1] (setting [4]), the pest or weed control at 100 µg/mL was above 70%. In data set [2] (setting [5]), the pest or weed control at 100 µg/mL is above 70%. In addition, the pest or weed control at 100 µg/mL in data set [2] (setting [6]) was above 70%.
In turn, `COc1ccnc(C(=O)N[C@H]2COC[C@H](Cc3ccccc3)[C@@H](COc3ccccc3)[C@H](C)OC2=O)c1O` [compound 151] came in with a melting point of 68 to 73 °C. In addition, the pest or weed control at 100 µg/mL in data set [1] (setting [3]) is above 70%. Moreover, the pest or weed control at 100 µg/mL in data set [1] (setting [4]) is above 70%. Besides, the pest or weed control at 100 µg/mL in data set [2] (setting [5]) was above 70%. The pest or weed control at 100 µg/mL in data set [2] (setting [6]) was below 70%.
`CCC[C@H]1COC[C@H](NC(=O)c2nccc(OC)c2O)C(=O)O[C@@H](C)[C@@H]1Cc1ccc(F)cc1` [compound 155] came in with a melting point of 43 to 48 °C. The pest or weed control at 100 µg/mL in data set [1] (setting [3]) was above 70%. Further, the pest or weed control at 100 µg/mL in data set [1] (setting [4]) is above 70%. The pest or weed control at 100 µg/mL in data set [2] (setting [5]) was above 70%. In addition, the pest or weed control at 100 µg/mL in data set [2] (setting [6]) was below 70%.

The values above are taken from US9955691B2, “Macrocyclic picolinamides as fungicides” (DOW AGROSCIENCES LLC, priority 2014, dated 2018).
